Where two headings read alike, the source gives them in different places.
How the values were obtained:
[1] = Baseline vital signs of 8 wk CFZ-treated mice; assay type: in vivo
Description: Clofazimine (CFZ, Sigma-Aldrich, C8895) was prepared in sesame oil (Shirakiku, Japan, or Roland, China) and Powdered Lab Diet 5001 (PMI International, Inc., St. […] Baik et al., 2011, supra). Control mice were fed with the same diet without CFZ. The animal protocol was approved by the University of Michigan's Animal Care and Use Committee in accordance with the National Institutes of Health guidelines (UCUCA #PRO0005111). The general health status of each PBS/LPS-instilled mice was monitored by measuring body weight and rectal temperature (Microprobe Thermometer, Physitemp Instruments, Clifton, N.J.), and cardiopulmonary function (arterial oxygen saturation, respiratory rate, heart rate and pulse distention) was monitored using MouseOx with a collar clip sensor ([…] Sciences Corp, Oakmont, Pa.) as previously described (Lax S et al., (2014) BMJ open […], et al. (2014) PLoS One 9(6):e98336). In brief, one day before IT instillations (D-1) the hair around the neck of each mouse was removed using Nair (Church & Dwight, Princeton, N.J.) to enable data acquisition using the collar clip sensor. The next day (D 0), immediately prior to the first LPS/PBS dose, and every 24 h afterwards until day 6 (D 6), the body weight, temperature and MouseOx readings were recorded. MouseOx data was acquired by very brief anesthesia of the mouse using 5% isoflurane to facilitate the placement of the collar clip sensor. The mouse was then placed in an enclosed chamber with ambient light and allowed to acclimatize for 5 min at which point the animals had recovered normal activities and physiological readings.

[2] = system: LPS-induced acute lung injury; assay: LPS-induced acute lung injury; assay type: in vivo, mice
Description: Since C57BL/6 mice are relatively resistant towards a single dose of intratracheal (IT) LPS instillation (Matute-Bello G et al., 2008 Am J Physiol Lung Cell Mol Physiol 295(3):L379-99), two IT injections of LPS (16 mg/kg; 50 μl) were administered, one on day 0 and the second on day 3. Briefly, 8 wk CFZ-treated and control mice were anesthetized using intraperitoneal injections of xylazine […]. Under direct visualization of the vocal cords using an otoscope, either LPS or an equivalent volume of PBS in a 1 mL syringe attached to an oral gavage needle (22 G) was instilled into the lungs via the oral route. The mouse was then placed in a temperature-controlled cage (37° C.) for recovery from anesthesia.
The general health status of each PBS/LPS-instilled mice was monitored by measuring body weight and rectal temperature (Microprobe Thermometer, Physitemp Instruments, Clifton, N.J.), and cardiopulmonary function (arterial oxygen saturation, respiratory rate, heart rate and pulse distention) was monitored using MouseOx with a collar clip sensor (Starr Life Sciences Corp, Oakmont, Pa.) as previously described (Lax S et al., (2014) BMJ open Respir Res 1(1):e000014; Nayak S, et al. (2014) PLoS One 9(6):e98336). In brief, one day before IT instillations (D-1) the hair around the neck of each mouse was removed using Nair (Church & Dwight, Princeton, N.J.) to enable data acquisition using the collar clip sensor. The next day (D 0), immediately prior to the first LPS/PBS dose, and every 24 h afterwards until day 6 (D 6), the body weight, temperature and MouseOx readings were recorded. MouseOx data was acquired by very brief anesthesia of the mouse using 5% isoflurane to facilitate the placement of the collar clip sensor. The mouse was then placed in an enclosed chamber with ambient light and allowed to acclimatize for 5 min at which point the animals had recovered normal activities and physiological readings. Arterial oxygen saturation, breath rate, heart rate and pulse distention measurements were then simultaneously recorded for 6 min (15 readings/sec), and any errors caused by motion during recording were excluded, after which the mean value of each parameter was used for further data analysis.
To objectively assess LPS-induced mortality, a multi-parametric scoring system that relied on the daily changes in vital signs associated with inflammatory injury progression and mortality which included arterial oxygen saturation was used (Lax et al., 2014, supra), body weight and temperature (Toth L A (2000) ILAR J 41(2):72-79; Nemzek et al., (2004) Humane endpoints in shock research. Shock 21(1):17-25). First, the percent change from baseline (D 0) in arterial oxygen saturation, body weight, and temperature in each mouse caused by IT instillation of PBS/LPS were measured and calculated daily until day 6 post-instillation. […] These mice were immediately euthanized with ketamine/xylazine and the bronchoalveolar lavage (BAL) and lungs were harvested for cellular and biochemical analysis (see below).
PBS/LPS-instilled CFZ- or control mice were euthanized by exsanguination while deeply anesthetized with an intraperitoneal injection of ketamine/xylazine. The trachea was surgically exposed and cannulated with an 18 G needle and the lungs were lavaged by instilling 1 ml DPBS (Life Technologies) containing 0.5 mM EDTA (Sigma). The retrieved BAL was then centrifuged (10 min at 400×g, 4° C.), and the supernatant was frozen (−80° C.), while the cell pellets were resuspended in 1 ml RPMI 1640 media (Life Technologies). To count total cells, the cells were stained with Trypan blue and counted using a hemocytometer. To distinguish cell types, an aliquot of the cells were dried on glass slides and stained with Diff Stain kit (IMEB Inc, San Marcos, Calif.) according to the manufacturer's instructions. […]

[3] = cited from earlier work

CC(C)/N=c1\cc2n(-c3ccc(Cl)cc3)c3ccccc3nc-2cc1Nc1ccc(Cl)cc1 [CFZ, 3-(p-chloroanilino)-10-(p-chlorophenyl)-2, 10-dihydro-2-isopropyliminophenazine]
arterial oxygen saturation, higher than control diet-treated [1]: 1.5%
behavioral signs of sickness [1]: did not display any behavioral signs of sickness
body temperature [1]: unaffected
breathing rate, lower than control diet-treated [1]: 10.7%
heart rate, lower than control diet-treated [1]: 9.3%
pulse distention, lower than control diet-treated [1]: 16.9%
weight, less than control diet-treated [1]: 6.7%
Arterial O2 Saturation (% ± S.D.) ([1]; n = 16): 99.01 ± 0.24%
Body Temperature (° C. ± S.D) ([1]; n = 16): 35.52 ± 0.76 °C
Breathing rate (brpm ± S.D.) ([1]; n = 16): 154.29 ± 19.43 brpm
Heart rate (bpm ± S.D.) ([1]; n = 16): 573.94 ± 85.28 bpm
Pulse distention (μm ± S.D) ([1]; n = 16): 425.57 ± 52.32 μm
Weight (g ± S.D) ([1]; n = 16): 24.39 ± 1.92 g
survival rate ([2]; 8 wk CFZ-treated, two IT LPS 16 mg/kg): 92%
TNFα and IL-1RA expression ([2]; after LPS): reduced TNFα and IL-1RA expression after LPS
arterial oxygen levels vs control mice ([2]; after LPS): significantly higher arterial oxygen levels at day 5 and day 6
cell count in bronchioalveolar lavage (BAL) ([2]; after LPS): significantly less cell count in bronchioalveolar lavage
number of mice losing more than 15% weight ([2]; after LPS): 1
lung injury vs control mice ([2]; after LPS instillation): notably less lung injury
body temperature drop vs control mice ([2]; after second LPS injection (day 4)): more resistant to temperature drop after the second injection
heart rate, breathing rate and pulse distention vs control mice ([2]; after the second LPS injection): less reduction in heart rate, breathing rate and pulse distention
half-life ([3]; after an acute dose, oral): in the order of hours to days
half-life ([3]; upon prolonged oral administration): in the order of weeks to months
